Reference: BindingDB's records for patent US20250313563 (The Broad Institute, 2025)
pIC50: −log10 of the molar value. “And” between values parts separate entries of the source, which are not always exact repeats. Identical values can stand only once.

Legend:
[1] = target: Glycogen synthase kinase-3 alpha (Homo sapiens, UniProt P49840); assay: TR-FRET Assay
Summary of the method: (§1)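 TR-FRET readout: streptavidin-d2 (40 nM in added detection mix) plus Tb-anti-pSer641 Ab (2 nM in mix). Steps were 30 min compound preincubation, kinase reaction, then EDTA stop.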

[2] = target: Glycogen synthase kinase-3 beta (Homo sapiens, UniProt P49841); assay: TR-FRET Assay
Summary of the method: as §1

Glycogen synthase kinase-3 alpha, sequence (P49840 whole entry): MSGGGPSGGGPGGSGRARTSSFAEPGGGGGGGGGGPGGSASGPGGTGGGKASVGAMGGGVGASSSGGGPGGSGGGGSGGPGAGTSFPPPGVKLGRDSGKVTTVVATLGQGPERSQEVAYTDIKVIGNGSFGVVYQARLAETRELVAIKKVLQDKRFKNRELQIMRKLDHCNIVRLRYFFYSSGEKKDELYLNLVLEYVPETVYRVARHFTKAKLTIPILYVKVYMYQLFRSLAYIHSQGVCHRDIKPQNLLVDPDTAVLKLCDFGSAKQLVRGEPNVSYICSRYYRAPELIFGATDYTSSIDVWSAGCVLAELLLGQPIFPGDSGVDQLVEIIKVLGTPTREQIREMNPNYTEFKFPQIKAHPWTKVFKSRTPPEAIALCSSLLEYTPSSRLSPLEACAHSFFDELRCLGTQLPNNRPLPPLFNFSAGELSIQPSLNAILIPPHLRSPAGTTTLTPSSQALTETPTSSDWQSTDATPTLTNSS
Glycogen synthase kinase-3 beta, sequence (P49841 whole entry): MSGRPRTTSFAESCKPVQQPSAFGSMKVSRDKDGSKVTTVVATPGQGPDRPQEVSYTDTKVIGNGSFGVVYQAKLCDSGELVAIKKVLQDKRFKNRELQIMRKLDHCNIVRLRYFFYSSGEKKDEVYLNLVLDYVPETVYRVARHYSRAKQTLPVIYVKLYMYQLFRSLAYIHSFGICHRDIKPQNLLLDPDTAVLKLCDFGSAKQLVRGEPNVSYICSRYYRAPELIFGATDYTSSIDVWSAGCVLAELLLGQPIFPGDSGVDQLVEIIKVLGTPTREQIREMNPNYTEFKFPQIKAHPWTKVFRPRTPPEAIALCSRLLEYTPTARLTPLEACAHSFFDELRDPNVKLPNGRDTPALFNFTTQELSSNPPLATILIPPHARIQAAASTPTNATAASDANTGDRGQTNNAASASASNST

SMILES | pIC50 [1] | pIC50 [2]
CC[C@]1(c2cccc(-c3ccncc3F)c2)C2=CN=NC2NC2=C1C(=O)NC(C)(C)C2 (stereo not given in full) [US20250313563, Compound 947874] | 6.00 to 7.00 | 5.30 to 6.00
CC[C@@]1(c2cccc(C3CC3)c2)C2=CN=NC2NC2=C1C(=O)CC(C)(C)C2 (stereo not given in full) [US20250313563, Compound 811557] | > 7.00 and 6.00 to 7.00 | > 7.00 and 5.30 to 6.00
CC1(C)CC(=O)C2=C(C1)NC1=C(CN=N1)[C@@]21CCO[C@H](C(F)(F)F)C1 [US20250313563, Compound 884022] | 6.00 to 7.00 | 6.00 to 7.00
CCC1(COCc2ccccc2)C2=C(N=NC2)NC2=C1C(=O)CC(C)(C)C2 (stereo not given) [US20250313563, Compound 874313] | 5.30 to 6.00 | 5.30 to 6.00
CC[C@]1(c2cccc(-c3cnn(C(F)F)c3)c2)C2=CN=NC2NC2=C1C(=O)NC(C)(C)C2 (stereo not given in full) [US20250313563, Compound 948816] | < 5.30 | < 5.30
CCC1(c2cccc(N3CCC[C@@H]3C)c2)C2=CN=NC2NC2=C1C(=O)CC(C)(C)C2 (stereo not given in full) [US20250313563, Compound 885188] | 6.00 to 7.00 | 6.00 to 7.00
CC[C@@]1(c2cccc(-c3ccncc3C)c2)C2=CN=NC2NC2=C1C(=O)NC(C)(C)C2 (stereo not given in full) [US20250313563, Compound 947574] | > 7.00 | > 7.00
CC[C@@]1(c2ccccc2)C2=C(CC(C)(C)CC2=O)NC2N=NC(C(F)F)=C21 (stereo not given in full) [US20250313563, Compound 874510] | 6.00 to 7.00 | 6.00 to 7.00

The next lines start with the values.

pIC50 [1] | pIC50 [2] | SMILES
> 7.00 | > 7.00 | CCC1(c2cccc(N(C)c3ncccn3)c2)C2=C(CC(C)(C)NC2=O)NC2N=NC(Cl)=C21 (stereo not given) [US20250313563, Compound 949417]
> 7.00 | > 7.00 | COc1ccc(F)c(S(=O)(=O)N2CCC3(CC2)C2=C(N=NC2)NC2=C3C(=O)CC(C)(C)C2)c1 [US20250313563, Compound 945665]
> 7.00 | > 7.00 | Cn1ccc(S(=O)(=O)N2CC3(C2)C2=C(N=NC2)NC2=C3C(=O)CC(C)(C)C2)n1 [US20250313563, Compound 913260]
> 7.00 | > 7.00 | CC1(C)CC2=C(C(=O)[C@H]1F)[C@]1(CC[C@H](C(F)(F)F)CC1)C1=C(N=NC1)N2 [US20250313563, Compound 918282]
> 7.00 | 6.00 to 7.00 | CCC1(c2cccc(-c3ccnc(C)c3)c2)C2=CN=NC2NC2=C1C(=O)CC(C)(C)C2 (stereo not given) [US20250313563, Compound 840857]
> 7.00 | > 7.00 | CCC1(c2cccc(-c3ccnnc3)c2)C2=CN=NC2NC2=C1C(=O)CC(C)(C)C2 (stereo not given) [US20250313563, Compound 927342]
> 7.00 | > 7.00 | CC[C@]1(c2cccc(N3CCOCC3)c2)C2=C(CC(C)(C)CC2=O)NC2N=NC(C)=C21 (stereo not given in full) [US20250313563, Compound 889581]
